From patent publication US12448366B2, “Solid forms of pralsetinib” (Rigel Pharmaceuticals, Inc., priority 2020, dated 2025)
Where a name gives a salt, the structure may show the parent alone.

Experiments:
Format in all cases: physicochemical
[1] = Salt screening: XRPD of wet cake, after drying under vacuum at 50° C., after exposure to 97% relative humidity; details: for stability of salt solid form to humidification: 97% (>95%) relative humidity; for stability of salt solid form to humidification / stability of salt solid form to drying: XRPD; for stability of salt solid form to drying: vacuum at 50° C.; for XRPD Pattern Dry / XRPD Pattern Humid: salt screening; for XRPD Pattern Dry: after drying; for XRPD Pattern Humid: after humidity exposure
Experimental: Stock solutions of counter-ion were prepared in EtOH, MeOH, or EtOAc, depending on solubility. […] The solvent was allowed to evaporate at room temperature over the weekend and then placed at 50° C. under vacuum for 3 hours to remove any remaining solvent. Approximately 25 volumes solvent (0.6 mL) was added to each vial for screening. The three solvents selected were EtOH, EtOAc, and IPA:water (9:1 vol). […] XRPD analysis was done in three stages. XRPD of the wet cake was done for all samples. Unique solids were then left on XRPD plates and dried under vacuum at 50° C. XRPD of unique dry solids was then done. […] The humid environment was generated by placing a beaker of saturated potassium sulfate in water in a sealed container. All XRPD patterns were compared to counter ion XRPD patterns and known free base patterns. Where solids were not of sufficient quantity to isolate, the solvent was evaporated at room temperature, the material dried at 50° C. under active vacuum for 3 hours, and then reslurried at room temperature in either MtBE or IPAc overnight after heating to 45° C. for 30 minutes.

[2] = Humidity exposure, 75% relative humidity at 40° C. for one week, XRPD
[3] = One week (7 days) slurry stability by XRPD and HPLC

SMILES: CO[C@]1(C(=O)N[C@@H](C)c2ccc(-n3cc(F)cn3)nc2)CC[C@H](c2nc(C)cc(Nc3cc(C)[nH]n3)n2)CC1 (single isomer, unassigned) [Pattern 12-G+2 peaks, pralsetinib]
- stability of salt solid form to humidification [1]: reverted to Pattern 12-G
- stability of salt solid form to drying [1]: converted to Pattern 12-H

SMILES: CO[C@]1(C(=O)N[C@@H](C)c2ccc(-n3cc(F)cn3)nc2)CC[C@H](c2nc(C)cc(Nc3cc(C)[nH]n3)n2)CC1 [Fumarate, pralsetinib]
- stability of salt solid form to drying [1]: changed

SMILES: COC1(C(=O)NC(C)c2ccc(-n3cc(F)cn3)nc2)CCC(c2nc(C)cc(Nc3cc(C)[nH]n3)n2)CC1.Cl (stereo not shown) [HCl 5-B]
- Stability 40° C./75% RH ([2]; XRPD pattern after exposure): Stable
- Stability 7-day slurry [3]: Stable

SMILES: CO[C@]1(C(=O)N[C@@H](C)c2ccc(-n3cc(F)cn3)nc2)CC[C@@H](c2nc(C)cc(Nc3cc(C)[nH]n3)n2)CC1.Cl [HCl]
- XRPD Pattern Dry ([1]; solvent EtOAc): 5-C + broad
- XRPD Pattern Humid ([1]; solvent EtOAc): 5-C + trace
- XRPD Pattern Humid ([1]; solvent IPA:water (9:1 vol)): 5-C + trace

SMILES: CS(=O)(=O)O [MSA]
- XRPD Pattern Dry ([1]; solvent IPA:water (9:1 vol)): 2-B + extra

SMILES: CO[C@]1(C(=O)N[C@@H](C)c2ccc(-n3cc(F)cn3)nc2)CC[C@H](c2nc(C)cc(Nc3cc(C)[nH]n3)n2)CC1 [Pyruvate, pralsetinib]
- stability of salt solid form to humidification [1]: changed form

SMILES: CO[C@]1(C(=O)N[C@@H](C)c2ccc(-n3cc(F)cn3)nc2)CC[C@H](c2nc(C)cc(Nc3cc(C)[nH]n3)n2)CC1 [Solid Form 1-A, pralsetinib]
- stability of salt solid form to humidification ([1]; listed as solid form 1-A): peak shift

SMILES: CO[C@]1(C(=O)N[C@@H](C)c2ccc(-n3cc(F)cn3)nc2)CC[C@H](c2nc(C)cc(Nc3cc(C)[nH]n3)n2)CC1 [Solid Form 1-B, pralsetinib]
- stability of salt solid form to humidification ([1]; listed as solid form 1-B): converted to Pattern 1-C

SMILES: CO[C@]1(C(=O)N[C@@H](C)c2ccc(-n3cc(F)cn3)nc2)CC[C@H](c2nc(C)cc(Nc3cc(C)[nH]n3)n2)CC1 [Solid Form 4-A, pralsetinib]
- stability of salt solid form to humidification ([1]; listed as Pattern 4-A): stable
- stability of salt solid form to drying ([1]; listed as Pattern 4-A): Pattern 4-C

SMILES: CO[C@]1(C(=O)N[C@@H](C)c2ccc(-n3cc(F)cn3)nc2)CC[C@H](c2nc(C)cc(Nc3cc(C)[nH]n3)n2)CC1 [Solid Form 4-B, pralsetinib]
- stability of salt solid form to humidification ([1]; listed as Pattern 4-B): stable

SMILES: CO[C@]1(C(=O)N[C@@H](C)c2ccc(-n3cc(F)cn3)nc2)CC[C@H](c2nc(C)cc(Nc3cc(C)[nH]n3)n2)CC1 [Solid Form 5-A, pralsetinib]
- stability of salt solid form to humidification ([1]; listed as Form 5-A): deliquesced
- stability of salt solid form to humidification ([1]; listed as Pattern 5-A): deliquesced
- stability of salt solid form to humidification ([1]; listed as hydrochloride (5-A)): deliquesced
- stability of salt solid form to drying ([1]; listed as Form 5-A): stable
- stability of salt solid form to drying ([1]; listed as Pattern 5-A): stable

SMILES: CO[C@]1(C(=O)N[C@@H](C)c2ccc(-n3cc(F)cn3)nc2)CC[C@H](c2nc(C)cc(Nc3cc(C)[nH]n3)n2)CC1 [Solid Form 5-B, pralsetinib]
- stability of salt solid form to humidification ([1]; listed as Pattern 5-B): stable
- stability of salt solid form to drying ([1]; listed as Form 5-B): converted to Form 5-C
- stability of salt solid form to drying ([1]; listed as Pattern 5-B): dried to Pattern 5-C
- stability slurrying 7 days in EtOAc ([3]; EtOAc, XRPD and HPLC, listed as Pattern 5-B): stable
- stability slurrying 7 days in EtOH ([3]; EtOH, XRPD and HPLC, listed as Pattern 5-B): stable
- stability slurrying 7 days in EtOH:water (95:5 vol) ([3]; EtOH:water (95:5 vol), XRPD and HPLC, listed as Pattern 5-B): stable

SMILES: CO[C@]1(C(=O)N[C@@H](C)c2ccc(-n3cc(F)cn3)nc2)CC[C@H](c2nc(C)cc(Nc3cc(C)[nH]n3)n2)CC1 [Solid Form 5-C, pralsetinib]
- stability of salt solid form to humidification ([1]; listed as Form 5-C): stable

SMILES: CO[C@]1(C(=O)N[C@@H](C)c2ccc(-n3cc(F)cn3)nc2)CC[C@H](c2nc(C)cc(Nc3cc(C)[nH]n3)n2)CC1 [Solid Form 6-A, pralsetinib]
- stability of salt solid form to humidification ([1]; listed as Pattern 6-A): became amorphous with one peak

SMILES: CO[C@]1(C(=O)N[C@@H](C)c2ccc(-n3cc(F)cn3)nc2)CC[C@H](c2nc(C)cc(Nc3cc(C)[nH]n3)n2)CC1 [Solid Form 8-A, pralsetinib]
- stability of salt solid form to humidification ([1]; listed as Pattern 8-A): stable
- stability of salt solid form to humidification ([1]; listed as maleate 8-A): stable
- stability of salt solid form to drying ([1]; listed as Pattern 8-A): stable
- stability of salt solid form to drying ([1]; listed as maleate 8-A): stable

SMILES: CO[C@]1(C(=O)N[C@@H](C)c2ccc(-n3cc(F)cn3)nc2)CC[C@H](c2nc(C)cc(Nc3cc(C)[nH]n3)n2)CC1 [Solid Form 9-A, pralsetinib]
- stability of salt solid form to humidification ([1]; listed as 9-A): stable
- stability of salt solid form to humidification ([1]; listed as oxalate 9-A): stable
- stability of salt solid form to drying ([1]; listed as 9-A): stable
- stability of salt solid form to drying ([1]; listed as oxalate 9-A): stable

SMILES: CO[C@]1(C(=O)N[C@@H](C)c2ccc(-n3cc(F)cn3)nc2)CC[C@H](c2nc(C)cc(Nc3cc(C)[nH]n3)n2)CC1 [Solid Form 10-A+B, pralsetinib]
- stability of salt solid form to humidification ([1]; listed as 10-A+B): stable
- stability of salt solid form to drying ([1]; listed as 10-A+B): stable

SMILES: CO[C@]1(C(=O)N[C@@H](C)c2ccc(-n3cc(F)cn3)nc2)CC[C@H](c2nc(C)cc(Nc3cc(C)[nH]n3)n2)CC1 [Solid Form 12-B, pralsetinib]
- stability of salt solid form to drying ([1]; listed as Pattern 12-B): stable

SMILES: CO[C@]1(C(=O)N[C@@H](C)c2ccc(-n3cc(F)cn3)nc2)CC[C@H](c2nc(C)cc(Nc3cc(C)[nH]n3)n2)CC1 [Solid Form 12-C, pralsetinib]
- stability of salt solid form to drying ([1]; listed as Pattern 12-C): stable

SMILES: CO[C@]1(C(=O)N[C@@H](C)c2ccc(-n3cc(F)cn3)nc2)CC[C@H](c2nc(C)cc(Nc3cc(C)[nH]n3)n2)CC1 [Solid Form 12-D, pralsetinib]
- stability of salt solid form to drying ([1]; listed as Pattern 12-D): Pattern 12-E

SMILES: CO[C@]1(C(=O)N[C@@H](C)c2ccc(-n3cc(F)cn3)nc2)CC[C@H](c2nc(C)cc(Nc3cc(C)[nH]n3)n2)CC1 [citrate, pralsetinib]
- stability of salt solid form to humidification [1]: deliquesced
- stability of salt solid form to humidification ([1]; listed as Citrate): deliquesced

SMILES: CO[C@]1(C(=O)N[C@@H](C)c2ccc(-n3cc(F)cn3)nc2)CC[C@H](c2nc(C)cc(Nc3cc(C)[nH]n3)n2)CC1 [gentisate, pralsetinib]
- stability of salt solid form to humidification [1]: deliquesced

SMILES: CO[C@]1(C(=O)N[C@@H](C)c2ccc(-n3cc(F)cn3)nc2)CC[C@H](c2nc(C)cc(Nc3cc(C)[nH]n3)n2)CC1 [hydrochloride, pralsetinib]
- stability of salt solid form to humidification [1]: deliquesced
- stability on exposure to 75% relative humidity at 40° C. ([2]; one week / 7 days, XRPD, listed as HCl salt): stable

SMILES: CO[C@]1(C(=O)N[C@@H](C)c2ccc(-n3cc(F)cn3)nc2)CC[C@H](c2nc(C)cc(Nc3cc(C)[nH]n3)n2)CC1 [saccharine salt, pralsetinib]
- stability of salt solid form to humidification [1]: changed form

SMILES: CO[C@]1(C(=O)N[C@@H](C)c2ccc(-n3cc(F)cn3)nc2)CC[C@H](c2nc(C)cc(Nc3cc(C)[nH]n3)n2)CC1 [sulfate, pralsetinib]
- stability of salt solid form to drying [1]: changed

SMILES: CO[C@]1(C(=O)N[C@@H](C)c2ccc(-n3cc(F)cn3)nc2)CC[C@H](c2nc(C)cc(Nc3cc(C)[nH]n3)n2)CC1 [sulfates generated from the 1.1 eq. experiments] [pralsetinib]
- stability of salt solid form to humidification [1]: changed form
